Measurements as given in ChEMBL document CHEMBL1201862, “PubChem BioAssay data set” (2004).
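Interpolation was linear, between the two tested concentrations surrounding the appropriate level; five concentrations were tested over 48 hours in 96-well plates. GI50 marks 50% less growth.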 Active and inactive are the calls of the source. No stated cut-off is given here; in the data, active = GI50 up to about 1.1 µM and inactive = higher.

What was measured:
Assay in all cases: NCI-60 cell line screen, 48 h
SW-620 = tested on: SW-620
OVCAR-8 = tested on: OVCAR-8
HCC 2998 = tested on: HCC 2998
DLD-1 = tested on: DLD-1
DMS-273 = tested on: DMS-273
K562 = tested on: K562
HOP-62 = tested on: HOP-62
CAKI-1 = tested on: CAKI-1
DMS-114 = tested on: DMS-114
OVCAR-3 = tested on: OVCAR-3
A498 = tested on: A498
HCT-116 = tested on: HCT-116
SR = tested on: SR
UO-31 = tested on: UO-31
A549 = tested on: A549
RXF 393 = tested on: RXF 393
SNB-78 = tested on: SNB-78
KM12 = tested on: KM12
SK-MEL-5 = tested on: SK-MEL-5
SNB-75 = tested on: SNB-75
U-251 = tested on: U-251
HCT-15 = tested on: HCT-15
COLO 205 = tested on: COLO 205
NCI-H460 = tested on: NCI-H460
RPMI-8226 = tested on: RPMI-8226
SK-MEL-28 = tested on: SK-MEL-28
SF-268 = tested on: SF-268
UACC-257 = tested on: UACC-257
SK-MEL-2 = tested on: SK-MEL-2
NCI-H23 = tested on: NCI-H23
IGROV-1 = tested on: IGROV-1
HL-60 = tested on: HL-60
SK-OV-3 = tested on: SK-OV-3
MOLT-4 = tested on: MOLT-4
UACC-62 = tested on: UACC-62
786-0 = tested on: 786-0
OVCAR-4 = tested on: OVCAR-4
KM-20L2 = tested on: KM-20L2
SF-295 = tested on: SF-295
M14 = tested on: M14
SF-539 = tested on: SF-539
LOX IMVI = tested on: LOX IMVI
M19-MEL = tested on: M19-MEL
SN12C = tested on: SN12C
HOP-92 = tested on: HOP-92
CCRF-CEM = tested on: CCRF-CEM
RXF 631 = tested on: RXF 631
NCI-H522 = tested on: NCI-H522
EKVX = tested on: EKVX
SNB-19 = tested on: SNB-19
TK-10 = tested on: TK-10
HT-29 = tested on: HT-29
ACHN = tested on: ACHN
OVCAR-5 = tested on: OVCAR-5
HOP-18 = tested on: HOP-18
NCI-H226 = tested on: NCI-H226
LXFL 529 = tested on: LXFL 529
Malme-3M = tested on: Malme-3M

## c1cc(-c2cn[nH]c2)cc(-c2cn[nH]c2)c1
SW-620
  GI50: 30.4 µM (inactive)
OVCAR-8
  GI50: 36.9 µM (inactive)
HCC 2998
  GI50: 88.9 µM (inactive)
DLD-1
  GI50: 33.7 µM (inactive)
DMS-273
  GI50: 30.6 µM (inactive)
K562
  GI50: 43 µM (inactive)
HOP-62
  GI50: 17.8 µM (inactive)
CAKI-1
  GI50: 8.04 µM (inactive)
DMS-114
  GI50: 45.9 µM (inactive)
OVCAR-3
  GI50: 33.5 µM (inactive)
A498
  GI50: 25.3 µM (inactive)
HCT-116
  GI50: 20.2 µM (inactive)
SR
  GI50: 31.8 µM (inactive)
UO-31
  GI50: 16 µM (inactive)
A549
  GI50: 20.1 µM (inactive)
RXF 393
  GI50: 6.44 µM (inactive)
SNB-78
  GI50: 80.7 µM (inactive)
KM12
  GI50: 41 µM (inactive)
SK-MEL-5
  GI50: 32.6 µM (inactive)
SNB-75
  GI50: 6.76 µM (inactive)
U-251
  GI50: 46.8 µM (inactive)
HCT-15
  GI50: 28.4 µM
COLO 205
  GI50: 53.3 µM (inactive)
NCI-H460
  GI50: 41.4 µM (inactive)
RPMI-8226
  GI50: 32.7 µM (inactive)
SK-MEL-28
  GI50: 35.9 µM (inactive)
SF-268
  GI50: 25.8 µM (inactive)
UACC-257
  GI50: 90.8 µM (inactive)
SK-MEL-2
  GI50: 56 µM (inactive)
NCI-H23
  GI50: 47 µM (inactive)
IGROV-1
  GI50: 51.2 µM (inactive)
HL-60
  GI50: 30.9 µM (inactive)
SK-OV-3
  GI50: 8.55 µM (inactive)
MOLT-4
  GI50: 33.1 µM (inactive)
UACC-62
  GI50: 11.6 µM (inactive)
786-0
  GI50: 37.3 µM (inactive)
OVCAR-4
  GI50: 54 µM (inactive)
KM-20L2
  GI50: 33 µM (inactive)
SF-295
  GI50: 39.8 µM (inactive)
M14
  GI50: 44.6 µM (inactive)
SF-539
  GI50: 17.9 µM (inactive)
LOX IMVI
  GI50: 36.8 µM (inactive)
M19-MEL
  GI50: 71.3 µM (inactive)
SN12C
  GI50: 39.4 µM (inactive)
HOP-92
  GI50: > 100 µM (inactive)
CCRF-CEM
  GI50: 29.4 µM (inactive)
RXF 631
  GI50: 38 µM (inactive)
NCI-H522
  GI50: 27.2 µM (inactive)
EKVX
  GI50: 6.24 µM (inactive)
SNB-19
  GI50: 61.1 µM (inactive)
TK-10
  GI50: 16.7 µM (inactive)

## O=C(NCCNCCO)c1cccc2ccc(-c3ccccc3)nc12
SW-620
  GI50: 3.15 µM (inactive)
OVCAR-8
  GI50: 4.42 µM (inactive)
HCC 2998
  GI50: 5.01 µM (inactive)
DLD-1
  GI50: 3.41 µM (inactive)
DMS-273
  GI50: 3.86 µM (inactive)
K562
  GI50: 5.97 µM (inactive)
HOP-62
  GI50: 10.3 µM (inactive)
CAKI-1
  GI50: 3.38 µM (inactive)
DMS-114
  GI50: 7.52 µM (inactive)
OVCAR-3
  GI50: 7.66 µM (inactive)
A498
  GI50: 1.8 µM (inactive)
HCT-116
  GI50: 2.73 µM (inactive)
UO-31
  GI50: 3.44 µM (inactive)
A549
  GI50: 2.93 µM (inactive)
RXF 393
  GI50: 3.98 µM (inactive)
SNB-78
  GI50: 9.25 µM (inactive)
KM12
  GI50: 5.68 µM (inactive)
SK-MEL-5
  GI50: 3.59 µM (inactive)
SNB-75
  GI50: 10.4 µM (inactive)
U-251
  GI50: 4.82 µM (inactive)
HCT-15
  GI50: 3.8 µM
COLO 205
  GI50: 3.1 µM (inactive)
HT-29
  GI50: 4.13 µM (inactive)
NCI-H460
  GI50: 2.02 µM (inactive)
SK-MEL-28
  GI50: 10.4 µM (inactive)
SF-268
  GI50: 6.53 µM (inactive)
UACC-257
  GI50: 3.47 µM (inactive)
SK-MEL-2
  GI50: 7.74 µM (inactive)
NCI-H23
  GI50: 4.68 µM (inactive)
IGROV-1
  GI50: 3.12 µM (inactive)
HL-60
  GI50: 3.17 µM (inactive)
SK-OV-3
  GI50: 8.13 µM (inactive)
MOLT-4
  GI50: 1.54 µM (inactive)
ACHN
  GI50: 2.26 µM (inactive)
UACC-62
  GI50: 4.54 µM (inactive)
786-0
  GI50: 6.87 µM (inactive)
OVCAR-4
  GI50: 6.5 µM (inactive)
SF-295
  GI50: 5.58 µM (inactive)
M14
  GI50: 5.28 µM (inactive)
SF-539
  GI50: 3.63 µM (inactive)
LOX IMVI
  GI50: 2.7 µM (inactive)
OVCAR-5
  GI50: 4.8 µM (inactive)
M19-MEL
  GI50: 4.89 µM (inactive)
HOP-18
  GI50: 19 µM (inactive)
SN12C
  GI50: 3.97 µM (inactive)
HOP-92
  GI50: 3.18 µM (inactive)
CCRF-CEM
  GI50: 3.4 µM (inactive)
RXF 631
  GI50: 1.83 µM (inactive)
EKVX
  GI50: 5.94 µM (inactive)
NCI-H226
  GI50: 4.46 µM (inactive)
SNB-19
  GI50: 6.49 µM (inactive)
TK-10
  GI50: 1.44 µM (inactive)

## NC(=O)N/N=C(\CCC(=O)N(Cc1ccccc1)Cc1ccccc1)CC(=O)c1ccc(F)cc1
SW-620
  GI50: > 100 µM (inactive)
OVCAR-8
  GI50: > 100 µM (inactive)
HCC 2998
  GI50: > 100 µM (inactive)
DLD-1
  GI50: > 100 µM (inactive)
LXFL 529
  GI50: > 100 µM (inactive)
K562
  GI50: > 100 µM (inactive)
HOP-62
  GI50: > 100 µM (inactive)
CAKI-1
  GI50: > 100 µM (inactive)
DMS-114
  GI50: > 100 µM (inactive)
OVCAR-3
  GI50: > 100 µM (inactive)
HCT-116
  GI50: > 100 µM (inactive)
SR
  GI50: > 100 µM (inactive)
UO-31
  GI50: > 100 µM (inactive)
A549
  GI50: 37.1 µM (inactive)
RXF 393
  GI50: 31.6 µM (inactive)
SNB-78
  GI50: > 100 µM (inactive)
KM12
  GI50: > 100 µM (inactive)
SK-MEL-5
  GI50: > 100 µM (inactive)
U-251
  GI50: > 100 µM (inactive)
HCT-15
  GI50: > 100 µM
COLO 205
  GI50: > 100 µM (inactive)
HT-29
  GI50: > 100 µM (inactive)
NCI-H460
  GI50: > 100 µM (inactive)
SK-MEL-28
  GI50: > 100 µM (inactive)
SF-268
  GI50: > 100 µM (inactive)
UACC-257
  GI50: > 100 µM (inactive)
SK-MEL-2
  GI50: > 100 µM (inactive)
NCI-H23
  GI50: > 100 µM (inactive)
IGROV-1
  GI50: > 100 µM (inactive)
HL-60
  GI50: > 100 µM (inactive)
SK-OV-3
  GI50: > 100 µM (inactive)
MOLT-4
  GI50: > 100 µM (inactive)
ACHN
  GI50: > 100 µM (inactive)
UACC-62
  GI50: > 100 µM (inactive)
786-0
  GI50: 27.2 µM (inactive)
OVCAR-4
  GI50: > 100 µM (inactive)
KM-20L2
  GI50: > 100 µM (inactive)
SF-295
  GI50: > 100 µM (inactive)
M14
  GI50: > 100 µM (inactive)
SF-539
  GI50: 23.8 µM (inactive)
LOX IMVI
  GI50: > 100 µM (inactive)
OVCAR-5
  GI50: > 100 µM (inactive)
M19-MEL
  GI50: > 100 µM (inactive)
HOP-18
  GI50: > 100 µM (inactive)
SN12C
  GI50: > 100 µM (inactive)
CCRF-CEM
  GI50: > 100 µM (inactive)
RXF 631
  GI50: > 100 µM (inactive)
EKVX
  GI50: > 100 µM (inactive)
NCI-H226
  GI50: > 100 µM (inactive)
Malme-3M
  GI50: > 100 µM (inactive)
SNB-19
  GI50: > 100 µM (inactive)
TK-10
  GI50: > 100 µM (inactive)
